Experimental data as given in US20240115681A1 (priority 2022, published 2024).
In the oligonucleotide strings, read from the 5' end, every base follows the letter of its sugar. An asterisk marks phosphorothioate; unmarked linkages are phosphodiester. Other units and linkages are bracketed, terminal groups are in braces. A string of capitals states the bases alone. d = 2'-deoxy (DNA)

Tests used:
Mouse BMDCs [1] = assay: Surface marker expression on BMDCs by flow cytometry; format: cell-based; conditions: CpG-2722 5 μg/ml, c-di-AM(PS)2 1 μg/ml, 24 h, CD11c+ cells (FIG. 6)
[2] = tested on: mouse embryonic fibroblasts (MEFs); assay: Cytokine expression in MEFs by RT-qPCR; format: cell-based; conditions: CpG-2722 5 μg/ml, c-di-AM(PS)2 1 μg/ml, 4 h (FIG. 10)
splenocytes = assay: Antigen-dependent T helper responses: cytokine ELISA of RBD-stimulated splenocytes from immunized mice; format: in vivo, mouse; conditions: splenocytes of intramuscularly immunized mice stimulated with RBD for 96 h (FIG. 5A-5C)
[3] = tested on: influenza VLP (viral like particle); assay: Antibody titers after intranasal influenza VLP/adjuvant vaccines in BALB/c mice; conditions: intranasal days 0, 15, 29, after the 3rd vaccination (day 42) (FIG. 15B)
[4] = tested on: NHRI-HN1 syngeneic orthotopic cancer animal model; set-up: species or system mice; conditions: mouse, in vivo
Mouse PBMCs = assay: Cytokine expression in PBMCs by RT-qPCR; format: cell-based; conditions: CpG-2722 5 μg/ml, c-di-AM(PS)2 1 μg/ml, 4 h (FIG. 9)
Mouse BMDCs [5] = assay: Cytokine expression in BMDCs by RT-qPCR; format: cell-based; conditions: 4 h (FIG. 7); for expression of cytokine genes (TNF-α, IL-1β, IL-6, IL-12A, IL-12B, IL-23A, IFN-β, IFN-γ): CpG-2722 5 μg/ml, c-di-AM(PS)2 1 μg/ml
recombinant S protein = tested on: recombinant S protein; set-up: species or system SARS-CoV-2; conditions: in vivo
Mouse splenocytes = assay: Cytokine expression in splenocytes by RT-qPCR; format: cell-based; conditions: 4 h (FIG. 8)

| Compound | surface expression of CCR7 (Mouse BMDCs [1]) | surface expression of CD40 (Mouse BMDCs [1]) | cytokine gene expression (TNF-α, IL-1β, IL-6, IL-12B, IL-23A, IFN-β) [2] | antigen-dependent Th responses (IFN-γ for Th1, IL-17A for Th17, IL-4, IL-5, IL-13 for Th2) (splenocytes) | anti-VLP IgG titer [3] | tumor growth suppression [4] | mRNA expression of TNF-α, IL-1β, IL-6, IL-12A, IL-12B, IL-23A, IFN-β, IFN-γ (Mouse PBMCs) | expression of IL-1β (Mouse BMDCs [5]) | expression of IL-2 (Mouse BMDCs [5]) | expression of cytokine genes (TNF-α, IL-1β, IL-6, IL-12A, IL-12B, IL-23A, IFN-β, IFN-γ) (Mouse BMDCs [5]) | anti-S protein IgG titer (recombinant S protein) | serum anti-S IgA production (recombinant S protein) | expression of TNF-α, IL-1β, IL-6, IL-12A, IL-12B, IL-23A, IFN-β, IFN-γ (Mouse splenocytes; CpG-2722 5 μg/ml, c-di-AM(PS)2 1 μg/ml) | surface expression of CD80 (Mouse BMDCs [1]) | surface expression of CD86 (Mouse BMDCs [1]) | expression of IFN-α (Mouse BMDCs [5]) | expression of IFN-β, IL-4, IL-5, and IL-13 (Mouse splenocytes) | expression of IL-12A and IL-12B (Mouse splenocytes) |
| --- | --- | --- | --- | --- | --- | --- | --- | --- | --- | --- | --- | --- | --- | --- | --- | --- | --- | --- |
| CpG-2722 (DNA dG*dT*dT*dG*dT*dC*dG*dT*dT*dT*dT*dT*dT*dG*dT*dC*dG*dT*dT) | none of these two agonists activated expression of the CCR7 | induced expression of CD40 | not observed | preferentially induced antigen-dependent Th1 and Th17 responses | does not further increase the IgG titer | some level of tumor growth suppression | higher induction by CpG-2722 treatment alone than that induced by the c-di-AM(PS)2 treatment alone | strongly induced | not induced by either of these two agonists alone | induced the expressions of TNF-α, IL-1β, IL-6, IL-12A, IL-12B, IL-23A, IFN-β, and IFN-γ genes | became apparent | did not elicit the production of serum anti-S IgA | more potent than c-di-AM(PS)2 |  |  |  |  |  |
| Nc1ncnc2c1ncn2[C@@H]1O[C@@H]2COP(=O)(O)O[C@@H]3[C@H](O)[C@@H](COP(=O)(O)O[C@H]2[C@H]1O)O[C@H]3n1cnc2c(N)ncnc21 [2′3′-c-di-AMP] |  |  |  |  |  | some level of tumor growth suppression |  |  |  |  |  |  |  |  |  |  |  |  |
| Nc1ncnc2c1ncn2[C@@H]1O[C@@H]2COP(O)(=S)O[C@@H]3C(O)[C@@H](COP(O)(=S)O[C@H]2[C@H]1O)O[C@H]3n1cnc2c(N)ncnc21 (some centres unmarked) [2′3′-c-di-AM(PS)2] | none of these two agonists activated expression of the CCR7 |  | induced the gene expression of TNF-α, IL-1β, IL-6, IL-12B, IL-23A, and IFN-β | induced an antigen-dependent Th2 response |  |  |  |  | not induced by either of these two agonists alone | induced the expressions of TNF-α, IL-1β, IL-6, IL-12A, IL-12B, IL-23A, IFN-β, and IFN-γ genes | became apparent | did not elicit the production of serum anti-S IgA |  | induced the expression of CD80 and CD86 | induced the expression of CD80 and CD86 | induced the expression of IFN-α | induced the expression of IFN-β, IL-4, IL-5, and IL-13 more potently | not induced |
